Laboratory results from patent publication US11999742B2, “Substituted pyrrolo[1,2-b]pyridazines as anthelmintics” (BOEHRINGER INGELHEIM VETMEDICA GMBH, priority 2021, dated 2024).

Key:
[1] = system: Haemonchus contortus L1 larvae; experiment: Haemonchus contortus larval development L1 to L3, 4 days, dose response; settings: 96 h, read-out: EC50, development of H. contortus larvae from L1 to L3
Text: Biological Example 2: Screening Method to Test Activity of Compounds Against Haemonchus contortus

[2] = system: L4 stage larvae of Dirofilaria immitis; experiment: Motility of L4 stage Dirofilaria immitis larvae, 3 days, dose response; assay type: cell-based; settings: 72 h, read-out: EC50, motility of L4 stage D. immitis, three days at 37° C., 5% CO2, vs DMSO control
[3] = system: Microfilaria of Dirofilaria immitis; experiment: Motility of Dirofilaria immitis microfilariae in microtiter plate, 3 days, dose response; assay type: cell-based; settings: 72 h, read-out: EC50, motility of D. immitis microfilaria, three days at 37° C., 5% CO2, vs DMSO control

SMILES	EC50 [1] [nM]	EC50 [2] [nM]	EC50 [3] [nM]
Cc1cc2c(C(C)(C)C)c(C(=O)N[C@H]3CCCc4ccccc43)cnn2c1-c1cc(F)cc(Cl)c1Cl [Compound A557]	< 10	< 10	< 10
Cc1cc2c(N3CC(C)(C)C3)c(C(=O)N[C@H]3CCOc4ccccc43)cnn2c1-c1cc(Cl)cc(Cl)c1Cl [Compound A563]	1000 to 10000	1000 to 10000	1000 to 10000
CC(C)(C)c1c(C(=O)NN2CCOc3ccccc32)cnn2c(-c3cc(Cl)cc(Cl)c3)c(Cl)cc12 [Compound A516]	10 to 100	< 10	< 10
Cc1cc2c(N(C)C)c(C(=O)N[C@H]3CCOc4ccccc43)cnn2c1-c1cc(F)cc(Cl)c1Cl [Compound A493, 7-(2,3-dichloro-5-fluorophenyl)-N-[(4S)-3,4-dihydro-2H-1-benzopyran-4-yl]-4-(dimethylamino)-6-methylpyrrolo[1,2-b]pyridazine-3-carboxamide]	< 10	< 10	< 10
Cc1cc2c(C(C)(C)C)c(C(=O)N[C@H]3CCc4cccnc43)cnn2c1-c1cc(F)cc(Cl)c1Cl [Compound A544]	100 to 1000	100 to 1000	10 to 100
CN(C)c1c(C(=O)N[C@H]2CCOc3ccccc32)cnn2c(-c3cc(F)cc(F)c3F)c(Cl)cc12 [Compound A474]	10 to 100	< 10	< 10
Cc1cc2c(C(C)(C)C)c(C(=O)N[C@H]3CCc4ncccc43)cnn2c1-c1cc(F)cc(Cl)c1Cl [Compound A559]	10 to 100	10 to 100	10 to 100
Cc1cc2c(N3CCOCC3)c(C(=O)N[C@H]3CCOc4ccccc43)cnn2c1-c1cc(Cl)cc(Cl)c1 [Compound A499]	10 to 100	< 10	< 10
Cc1cc2c(C(C)(C)C)c(C(=O)N[C@H]3CCCc4cc(Cl)ccc43)cnn2c1-c1cc(F)cc(Cl)c1Cl [Compound A549]	1000 to 10000	100 to 1000	100 to 1000
CC(C)(C)c1c(C(=O)N[C@H]2CCOc3ccccc32)cnn2c(-c3cc(Cl)cc(Cl)c3)c(Cl)cc12 [Compound A477]	10 to 100	< 10	< 10
CC(C)(C)c1c(C(=O)N[C@H]2CCOc3ccccc32)cnn2c(-c3c(Cl)cc(F)cc3Cl)c(Cl)cc12 [Compound A485]	< 10	< 10	< 10
Cc1cc2c(N3CCOCC3)c(C(=O)N[C@H]3CCOc4ccccc43)cnn2c1-c1cc(Cl)cc(Cl)c1Cl [Compound A501]	10 to 100	< 10	< 10
Cc1cc2c(C(C)(C)C)c(C(=O)N[C@H]3CCOc4ccccc43)cnn2c1N1CCC(F)(F)CC1 [Compound A527]	100 to 1000	10 to 100	100 to 1000
Cc1cc2c(C(C)(C)C)c(C(=O)NN3CCOc4ccccc43)cnn2c1-c1cc(Cl)cc(Cl)c1 [Compound A482]	100 to 1000	10 to 100	1000 to 10000
CC1(C)CN(c2c(C(=O)N[C@H]3CCOc4ccccc43)cnn3c(-c4cc(F)cc(Cl)c4Cl)c(Cl)cc23)C1 [Compound A567]	1000 to 10000	100 to 1000	1000 to 10000
Cc1cc2c(C(C)C)c(C(=O)N[C@H]3CCOc4ccccc43)cnn2c1-c1cc(Cl)cc(Cl)c1 [Compound A465, 7-(3,5-dichlorophenyl)-N-[(4S)-3,4-dihydro-2H-1-benzopyran-4-yl]-6-methyl-4-(propan-2-yl)pyrrolo[1,2-b]pyridazine-3-carboxamide]	10 to 100	10 to 100	100 to 1000
Cc1cc2c(C(C)C)c(C(=O)N[C@H]3CCOc4ccccc43)cnn2c1-c1cc(F)cc(F)c1F [Compound A513, N-[(4S)-3,4-dihydro-2H-1-benzopyran-4-yl]-6-methyl-4-(propan-2-yl)-7-(2,3,5-trifluorophenyl)pyrrolo[1,2-b]pyridazine-3-carboxamide]	10 to 100	< 10	< 10
Cc1cc2c(C(C)(C)C)c(C(=O)N[C@H]3CCOc4ccccc43)cnn2c1-c1c(Cl)cc(F)cc1Cl [Compound A487]	10 to 100	< 10	10 to 100
CC(C)(C)c1c(C(=O)N[C@H]2CCOc3ccccc32)cnn2c(-c3cc(Cl)cc(Cl)c3)c(C(F)(F)F)cc12 [Compound A483]	10 to 100	< 10	10 to 100
